The values below come from US20210403864A1, “METHODS AND COMPOSITIONS FOR TREATING ACTIVATED G-ALPHA Q MUTANT CANCERS OR MELANOCYTIC MALIGNANCIES” (Memorial Sloan Kettering Cancer Center, priority 2018, published 2021).

Common to all, as to format: cell-based, mouse
Assay [1] has as its system RASGRP3, CRAF, MEK, ERK phosphorylation and cyclin D1 expression. The experiment in a line: Western blot of Gαq downstream signaling in melan-a cells. The protocol: The last sample for each cell line was also treated with TPA for 24 hours showing rescue of the pathway.
Samples were treated with 500 nM YM for 0, 2, 4, 8, and 24 hours with the last lane being treatment plus TPA add back.
Immunoblotting. Lysates were harvested using SDS lysis buffer (50 mM Tris-HCL, pH 6.8, 1 mM EDTA, 150 mM NaCl, 1% SDS, […]) supplemented with fresh proteinase and phosphatase inhibitors (PhosSTOP, Roche, Basel, Switzerland; Complete EDTA-Free, Roche, Basel, Switzerland) and 1% PMSF (Sigma-Aldrich, St. Louis, Mo.). Lysates were incubated on ice for 30 minutes, sonicated for 15 minutes, and then centrifuged at max speed for 10 minutes at 4° C. Protein levels were quantified using BCA protein assay (Thermo Scientific, Waltham, Mass.). NuPAGE LDS Sample Buffer (4×) was added to a final concentration of 1×. Samples were run on NuPAGE Novex 4-12% Bis-Tris protein gels (Life Technologies, Carlsbad, Calif.), transferred electrophoretically to 0.45 μm PVDF membranes (Immobilon, EMD Millipore, Burlington, Mass.), and then blocked with StartingBlock blocking buffer (Thermo Scientific, Waltham, Mass.) for 1 hour at room temperature. Primary antibodies were incubated at 4° C. overnight in StartingBlock buffer at 1:1,000 dilution, unless noted otherwise. Primary Antibodies used in the experiments described herein are provided below:
The effect of YM on Gαq downstream signaling was assayed, including RASGRP3 phosphorylation by PKC, phosphorylation of CRAF, MEK, and ERK (downstream of RAS) and cyclin D1 expression which integrates signaling to promote cell cycle progression.

Assay [2] relates to BRAF^V600E-expressing melan-a cells. The experiment in a line: TPA-independent cell growth, CellTiter-glo 2.0. To be noted: 5 days, without TPA. The method, then: (§1) Data are expressed as the percentage relative light units (RLU) relative to that observed with vehicle. Error bars, s.e.m. from triplicate samples.
(§2) Cell Culture and in vitro analysis. Mutation dependent melan-a cells were generated by transducing cells with cDNAs in MSCV-PURO (retrovirus) and then selecting cells with puromycin (1 μg/ml) for two days. TPA (Sigma-Aldrich, St. Louis, Mo.) was then withdrawn from cultures. Cells with activating mutations (CYSLTR2^L129Q, GNAQ^G48V/R183Q/Q209L, KRAS^G12V, and BRAF^V600E) continued to proliferate over several passages (>2 weeks) and were then validated with qRT-PCR and immunoblots. Vector and WT controls were unable to maintain proliferation after a couple passages upon TPA withdrawal. All cells were cultured in media containing 10% FBS, L-glutamine ([…]), penicillin (100 U/ml), streptomycin (100 μg/ml). Melan-a cells provided by D. Bennett, St. George's Hospital, University of London (Johnson C P, et al., PLoS One. 12(6):1-17 (2017)), were cultured in RPMI supplemented with 200 nM TPA unless otherwise noted. HEK293T (from ATCC, Manassas, Va.) cells were cultured in DMEM-Q and UVM cells were cultured in RPMI. All cells tested negative for mycoplasma. Cell growth assays and YM dose response curves were assayed using CellTiter-glo 2.0 (Promega, Madison, Wis.) at given time points or after five days of incubation with YM and readout on a Glomax Luminometer (Promega, Madison, Wis.). IC50 values were calculated using Prism 7.0 software. Growth assays were compared to day 1 readings and dose response curves were compared to vehicle. Data shown is representative of at least three independent experiments with at least three technical replicates. Dose-response curves and growth assays were analyzed using GraphPad Prism 7.0 software.
On the technique in general: In ATP-based viability assays light output follows the ATP content of the culture.

In assay [3] the test system is GNAQ^G48V-expressing melan-a cells. Briefly: TPA-independent cell growth, CellTiter-glo 2.0. To be noted: 5 days, without TPA. The method, then: as §1, §2
In assay [4] the test system is GNAQ^R183Q-expressing melan-a cells. The experiment in a line: TPA-independent cell growth, CellTiter-glo 2.0. To be noted: 5 days, without TPA. The method, then: as §1, §2
Assay [5] has as its system KRAS^G12V-expressing melan-a cells. The experiment in a line: TPA-independent cell growth, CellTiter-glo 2.0. To be noted: 5 days, without TPA. The protocol:
as §1, §2

YM-254890: the “downstream signaling targets with TPA supplementation” value in assay [1] (24 hours after YM treatment, plus TPA) is on record as “completely rescued”. In addition, the “inhibition of MAPK signaling” value in assay [1] (BRAF^V600E-expressing melan-a cells, 500 nM YM) is “ineffective”; in assay [1] (KRAS^G12V-expressing melan-a cells, 500 nM YM) it was “ineffective”. The “inhibition of downstream signaling targets (p-RASGRP3, p-CRAF, p-MEK, p-ERK, cyclin D1)” value in assay [1] (CYSLTR2^L129Q, GNAQ^G48V, GNAQ^R183Q and GNAQ^Q209L-expressing melan-a cells, 500 nM YM, 0-24 hours) was “inhibited”. For the same substance, the “kinetics of inhibition of downstream signaling compared to CYSLTR2^L129Q and GNAQ^G48V-expressing cells” value was “slower kinetics” in assay [1] (GNAQ^Q209L-expressing melan-a cells, 500 nM YM) and “slower kinetics” in assay [1] (GNAQ^R183Q-expressing melan-a cells, 500 nM YM). The “sensitivity of TPA-independent cell growth to YM” value was “completely resistant” in assay [2], “sub-nanomolar sensitivity” in assay [3], “modestly less sensitive” in assay [4] and “completely resistant” in assay [5].
